In patent US20240382519A1, “MONOVALENT COPPER/PORPHYRIDIUM SP. POLYSACCHARIDE COMPLEXES, RELATED PRODUCTS AND METHODS OF PREPARATION THEREOF” (B.G. NEGEV TECHNOLOGIES AND APPLICATIONS LTD., AT …, priority 2021, published 2024):

Tests used:
Settings in all cases: CFU after 24 h, 0.07% (w/v) polysaccharide, 30 ppm copper, Table 3(b)
C. albicans = test system: C. albicans
A. baumannii = test system: A. baumannii
P. aeruginosa = test system: P. aeruginosa
E. coli = test system: E. coli
S. aureus = test system: S. aureus
B. subtilis = test system: B. subtilis

SMILES	Cell Viability [%] (C. albicans)	Cell Viability [%] (A. baumannii)	Cell Viability [%] (P. aeruginosa)	Cell Viability [%] (E. coli)	Cell Viability [%] (S. aureus)	Cell Viability [%] (B. subtilis)
[Cl][Cu][Cl] [CuCl2]	71.0 ± 1.0	81.5 ± 7.4	82.6 ± 6.8	81.3 ± 5.6	81.6 ± 4.5	82.0 ± 1.0
[Cl][Cu] [CuCl, cuprous chloride]	90.3 ± 0.6	37.4 ± 3.5	38.9 ± 4.5	–	–	52.6 ± 5.4
[O]=[Cu] [CuO]	84.7 ± 4.0	87.1 ± 2.3	79.4 ± 8.9	78.1 ± 6.5	71.2 ± 8.9	72.7 ± 4.0
